# Target: T1, USP28 (His-tagged USP28-FL-mammalian) (Homo sapiens, UniProt Q96RU2)
# T1 construct: Expression of USP28 (1-1077)-TEV-6*His (pTT5 vector); made in house; host or cells: Expi293f cells (pTT5 vector)
# T1 sequence (Q96RU2 1-1077): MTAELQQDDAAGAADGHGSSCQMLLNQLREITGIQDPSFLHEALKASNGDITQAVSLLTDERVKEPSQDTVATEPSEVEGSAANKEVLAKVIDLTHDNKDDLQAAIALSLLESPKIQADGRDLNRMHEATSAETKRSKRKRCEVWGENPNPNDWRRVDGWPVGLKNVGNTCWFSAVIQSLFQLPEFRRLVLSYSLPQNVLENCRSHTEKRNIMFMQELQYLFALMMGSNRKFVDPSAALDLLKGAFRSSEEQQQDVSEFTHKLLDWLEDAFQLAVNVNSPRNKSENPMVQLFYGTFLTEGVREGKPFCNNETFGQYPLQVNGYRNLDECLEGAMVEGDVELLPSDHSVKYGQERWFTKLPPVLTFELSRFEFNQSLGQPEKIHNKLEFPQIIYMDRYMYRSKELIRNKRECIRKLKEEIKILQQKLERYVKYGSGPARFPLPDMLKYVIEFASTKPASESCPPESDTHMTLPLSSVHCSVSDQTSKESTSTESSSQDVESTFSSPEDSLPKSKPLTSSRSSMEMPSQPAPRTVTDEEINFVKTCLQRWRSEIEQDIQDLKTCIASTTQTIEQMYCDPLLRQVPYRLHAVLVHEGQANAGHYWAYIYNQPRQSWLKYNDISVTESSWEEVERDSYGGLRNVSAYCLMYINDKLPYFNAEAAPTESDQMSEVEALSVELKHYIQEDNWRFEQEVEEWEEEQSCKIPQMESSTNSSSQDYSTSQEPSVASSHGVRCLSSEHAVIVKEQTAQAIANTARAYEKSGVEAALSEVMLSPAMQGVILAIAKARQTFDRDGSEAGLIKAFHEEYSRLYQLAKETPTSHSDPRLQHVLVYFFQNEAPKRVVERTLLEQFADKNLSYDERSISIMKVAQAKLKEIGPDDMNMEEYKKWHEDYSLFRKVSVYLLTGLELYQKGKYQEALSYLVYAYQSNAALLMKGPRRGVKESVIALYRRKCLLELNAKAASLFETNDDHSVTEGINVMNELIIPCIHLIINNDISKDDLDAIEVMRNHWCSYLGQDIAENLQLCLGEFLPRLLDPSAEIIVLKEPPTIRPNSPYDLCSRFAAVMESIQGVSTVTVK
# Assay: Ubiquitin-Rhodamine 110 Assay for USP28 Activity, Example A-1(a)
# Type: biochemical
# Details: Ubiquitin-Rhodamine 110 assay, Example A-1(a); read-out: USP28 A-1(a) IC50 range
# In short: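 IC50 from 4-parameter logistic fit of percent inhibition versus no-enzyme and DMSO controls; compounds 25 μM to 1.3 nM, 3-fold. Ub-Rh110 cleavage (25 nM, below Km) by […] mammalian-expressed USP28-FL-His ran 45 min at room temperature, stopped with 10 mM citric acid, read ex 485/em 535.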
row,SMILES,IC50 [nM]
1,"O=C(N[C@H]1COc2cc(N3CCNCC3)ccc2C1)c1cnc2c(c1)CC[C@@H]2O [Example 58, (S)-7-hydroxy-N-((R )-7-(piperazin-1-yl)chroman-3-yl)-6,7-dihydro-5H-cyclopenta[b]pyridine-3-carboxamide]",200 to 2000
2,"O=C(N[C@H]1COc2cc(N3CCNCC3)ccc2C1)c1cnc2c(ccn2Cc2ccccc2)c1 [Example 59, (R)-1-benzyl-N-(7-(piperazin-1-yl)chroman-3-yl)-1H-pyrrolo[2,3-b]pyridine-5-carboxamide]",1 to 50
3,"Cc1cnc2c(N)c(C(=O)N[C@H]3COc4c(C#N)c(N5CCNCC5)cc(F)c4C3)sc2n1 [Example 60, (R)-7-amino-N-(8-cyano-5-fluoro-7-(piperazin-1-yl)chroman-3-yl)-3-methylthieno[2,3-b]pyrazine-6-carboxamide]",50 to 200
4,"Cc1ccc2c(N)c(C(=O)N[C@H]3COc4cc(N5CCNCC5)c(F)c(F)c4C3)sc2n1 [Example 61, (R)-3-amino-N-(5,6-difluoro-7-(piperazin-1-yl)chroman-3-yl)-6-methylthieno[2,3-b]pyridine-2-carboxamide]",1 to 50
5,"Cc1ccc2c(N)c(C(=O)N[C@H]3COc4cc([C@H]5CCNC[C@H]5O)ccc4C3)sc2n1 [Example 62, 3-amino-N-((R)-7-((3S,4R)-3-hydroxypiperidin-4-yl)chroman-3-yl)-6-methylthieno[2,3-b]pyridine-2-carboxamide]",1 to 50
6,"Cc1ccc2c(N)c(C(=O)N[C@H]3COc4cc([C@@H]5CCNC[C@@H]5O)ccc4C3)sc2n1 [Example 63, 3-amino-N-((R)-7-((3R,4S)-3-hydroxypiperidin-4-yl)chroman-3-yl)-6-methylthieno[2,3-b]pyridine-2-carboxamide]",1 to 50
7,"Cc1ccc2c(N)c(C(=O)N[C@H]3COc4cc([C@H]5CCNC[C@@H]5O)ccc4C3)sc2n1 [Example 64, 3-amino-N-((R)-7-((3R,4R)-3-hydroxypiperidin-4-yl)chroman-3-yl)-6-methylthieno[2,3-b]pyridine-2-carboxamide]",1 to 50
8,"Cc1ccc2c(N)c(C(=O)N[C@H]3COc4cc([C@@H]5CCNC[C@H]5O)ccc4C3)sc2n1 [Example 65, 3-amino-N-((R)-7-((3S,4S)-3-hydroxypiperidin-4-yl)chroman-3-yl)-6-methylthieno[2,3-b]pyridine-2-carboxamide]",1 to 50
9,"Cc1nc2sc(C(=O)N[C@H]3COc4cc(N5CCNCC5)c(F)c(F)c4C3)c(N)c2s1 [Example 66, (R)-6-amino-N-(5,6-difluoro-7-(piperazin-1-yl)chroman-3-yl)-2-methylthieno[2,3-d]thiazole-5-carboxamide]",1 to 50
10,"Cc1cnc2c(N)c(C(=O)N[C@H]3COc4cc(N5CCNCC5)c(C#N)c(F)c4C3)sc2n1 [Example 67, (R)-7-amino-N-(6-cyano-5-fluoro-7-(piperazin-1-yl)chroman-3-yl)-3-methylthieno[2,3-b]pyrazine-6-carboxamide]",1 to 50
11,"Cc1ccc2c(N)c(C(=O)N[C@H]3COc4c(F)c(N5CCNCC5)cc(F)c4C3)oc2n1 [Example 68, (R)-3-amino-N-(5,8-difluoro-7-(piperazin-1-yl)chroman-3-yl)-6-methylfuro[2,3-b]pyridine-2-carboxamide]",200 to 2000
12,"Cc1ccc2c(N)c(C(=O)N[C@H]3COc4cc([C@H]5CCNCC5(F)F)ccc4C3)sc2n1 [Example 69, 3-amino-N-((R)-7-((R)-3,3-difluoropiperidin-4-yl)chroman-3-yl)-6-methylthieno[2,3-b]pyridine-2-carboxamide]",1 to 50
13,"Cc1ccc2c(N)c(C(=O)N[C@H]3COc4cc([C@@H]5CCNCC5(F)F)ccc4C3)sc2n1 [Example 70, 3-amino-N-((R)-7-((S)-3,3-difluoropiperidin-4-yl)chroman-3-yl)-6-methylthieno[2,3-b]pyridine-2-carboxamide]",1 to 50
14,"Cc1cnc2c(N)c(C(=O)N[C@H]3COc4cc(N5CCNCC5)ncc4C3)sc2n1 [Example 71, (R)-7-amino-3-methyl-N-(7-(piperazin-1-yl)-3,4-dihydro-2H-pyrano[3,2-c]pyridin-3-yl)thieno[2,3-b]pyrazine-6-carboxamide]",50 to 200
15,"Cc1nc2sc(C(=O)N[C@H]3COc4cc(N5CCNCC5)ncc4C3)c(N)c2cc1F [Example 72, (R)-3-amino-5-fluoro-6-methyl-N-(7-(piperazin-1-yl)-3,4-dihydro-2H-pyrano[3,2-c]pyridin-3-yl)thieno[2,3-b]pyridine-2-carboxamide]",1 to 50
16,"C[C@H]1CCc2cc(C(=O)N[C@H]3COc4cc(N5CC6CCC(C5)N6)ccc4C3)cnc2N1 [Example 73, (7S)-N-((3R)-7-(3,8-diazabicyclo[3.2.1]octan-3-yl)chroman-3-yl)-7-methyl-5,6,7,8-tetrahydro-1,8-naphthyridine-3-carboxamide]",> 2000
17,"C[C@@H]1CCc2cc(C(=O)N[C@H]3COc4cc(N5CC6CCC(C5)N6)ccc4C3)cnc2N1 [Example 74, (7R)-N-((3R)-7-(3,8-diazabicyclo[3.2.1]octan-3-yl)chroman-3-yl)-7-methyl-5,6,7,8-tetrahydro-1,8-naphthyridine-3-carboxamide]",50 to 200
18,"Cc1ccc2c(N)c(C(=O)N[C@H]3COc4cc(N5C[C@@H]6CC[C@H]5CN6)ncc4C3)sc2n1 [Example 75, N-((R)-7-((1S, 4S)-2 5-diazabicyclo[2.2.2]octan-2-yl)-3,4-dihydro-2H-pyrano[3,2-c]pyridin-3-yl)-3-amino-6-methylthieno[2,3-b]pyridine-2-carboxamide]",1 to 50
19,"Cc1ccc2c(N)c(C(=O)N[C@H]3COc4cc(N5C[C@H]6CC[C@@H]5CN6)ncc4C3)sc2n1 [Example 76, N-((R)-7-((1 R,4R)-2,5-diazabicyclo[2.2.2]octan-2-yl)-3,4-dihydro-2H-pyrano[3,2-c]pyridin-3-yl)-3-amino-6-methylthieno[2,3-b]pyridine-2-carboxamide]",1 to 50
20,"Cc1cnc2c(N)c(C(=O)N[C@H]3COc4c(C#N)c(N5CC6CC(C5)N6)cc(F)c4C3)sc2n1 [Example 77, N-((3R)-7-(3,6-diazabicyclo[3.1.1]heptan-3-yl)-8-cyano-5-fluorochroman-3-yl)-7-amino-3-methylthieno[2,3-b]pyrazine-6-carboxamide]",50 to 200
21,"Cc1ccc2c(N)c(C(=O)N[C@H]3COc4c(F)c(N5CC6CNCC(C5)O6)cc(F)c4C3)sc2n1 [Example 78, N-((3R)-7-(9-oxa-3,7-diazabicyclo[3.3.1]nonan-3-yl)-5,8-difluorochroman-3-yl)-3-amino-6-methylthieno[2,3-b]pyridine-2-carboxamide]",1 to 50
22,"Cc1ccc2c(N)c(C(=O)N[C@H]3COc4cc(N5CC6CNCC(C5)O6)c(F)c(F)c4C3)sc2n1 [Example 79, N-((3R)-7-(9-oxa-3,7-diazabicyclo[3.3.1]nonan-3-yl)-5,6-difluorochroman-3-yl)-3-amino-6-methylthieno[2,3-b]pyridine-2-carboxamide]",1 to 50
23,"Cc1ccc2c(N)c(C(=O)N[C@H]3COc4cc([C@H]5CCNC[C@@H]5F)ccc4C3)sc2n1 [Example 80, 3-amino-N-((R)-7-((3R,4R)-3-fluoropiperidin-4-yl)chroman-3-yl)-6-methylthieno[2,3-b]pyridine-2-carboxamide]",1 to 50
